ChEMBL document CHEMBL2424616, “Synthesis and antimicrobial activity of novel 5-(1-adamantyl)-2-aminomethyl-4-substituted-1,2,4-triazoline-3-thiones” (2013)
≈ marks a conversion by molar mass, not a printed value.

How the values were obtained:
Assay type in all cases: functional
Pseudomonas aeruginosa = test: Antibacterial activity against Pseudomonas aeruginosa IFO 3448 assessed as growth inhibition at 200 ug/disc after 24 hrs by agar disc-diffusion method; conditions: IFO 3448, 24 h, read-out: DIZ
Bacillus subtilis [1] = test: Antibacterial activity against Bacillus subtilis IFO 3007 assessed as growth inhibition at 200 ug/disc after 24 hrs by agar disc-diffusion method; conditions: IFO 3007, 24 h, read-out: DIZ
Escherichia coli = test: Antibacterial activity against Escherichia coli IFO 3301 assessed as growth inhibition at 200 ug/disc after 24 hrs by agar disc-diffusion method; conditions: IFO 3301, 24 h, read-out: DIZ
Micrococcus luteus = test: Antibacterial activity against Micrococcus luteus IFO 3232 assessed as growth inhibition at 200 ug/disc after 24 hrs by agar disc-diffusion method; conditions: IFO 3232, 24 h, read-out: DIZ
Candida albicans = test: Antifungal activity against Candida albicans IFO 0583 assessed as growth inhibition at 200 ug/disc after 48 hrs by agar disc-diffusion method; conditions: IFO 0583, 48 h, read-out: DIZ
Staphylococcus aureus [2] = test: Antibacterial activity against Staphylococcus aureus IFO 3060 assessed as growth inhibition at 200 ug/disc after 24 hrs by agar disc-diffusion method; conditions: IFO 3060, 24 h, read-out: DIZ
Bacillus subtilis [3] = test: Antibacterial activity against Bacillus subtilis IFO 3007 after 24 hrs by two fold dilution method; conditions: IFO 3007, 24 h
Staphylococcus aureus [4] = test: Antibacterial activity against Staphylococcus aureus IFO 3060 after 24 hrs by two fold dilution method; conditions: IFO 3060, 24 h

Structure (SMILES) | zone of inhibition at 200 µg/disc (Pseudomonas aeruginosa) | zone of inhibition at 200 µg/disc (Bacillus subtilis [1]) | zone of inhibition at 200 µg/disc (Escherichia coli) | zone of inhibition at 200 µg/disc (Micrococcus luteus) | zone of inhibition at 200 µg/disc (Candida albicans) | zone of inhibition at 200 µg/disc (Staphylococcus aureus [2]) | MIC (Bacillus subtilis [3]) | MIC (Staphylococcus aureus [4])
S=c1n(CNc2ccccc2)nc(C23CC4CC(CC(C4)C2)C3)n1-c1ccc(Cl)cc1 | < 10 mm | < 10 mm | < 10 mm | < 10 mm | < 10 mm | < 10 mm |  | 
Oc1ccccc1/C=N/n1c(C23CC4CC(CC(C4)C2)C3)nn(CN2CCN(Cc3ccccc3)CC2)c1=S | 11 mm | 21 mm | 11 mm | 17 mm | < 10 mm | 19 mm | 2 µg/mL (≈ 3.68 µM) | 2 µg/mL (≈ 3.68 µM)
CCOC(=O)N1CCN(Cn2nc(C34CC5CC(CC(C5)C3)C4)n(/N=C/c3ccc(O)cc3)c2=S)CC1 | < 10 mm | 16 mm | < 10 mm | 14 mm | < 10 mm | 17 mm |  | 
Cn1c(C23CC4CC(CC(C4)C2)C3)nn(CNc2ccc(Br)cc2)c1=S | < 10 mm | < 10 mm | < 10 mm | < 10 mm | < 10 mm | < 10 mm |  | 
Cn1c(C23CC4CC(CC(C4)C2)C3)nn(CN2CCN(c3ccccc3)CC2)c1=S | < 10 mm | 18 mm | < 10 mm | 14 mm | < 10 mm | 19 mm | 16 µg/mL (≈ 37.8 µM) | 8 µg/mL (≈ 18.9 µM)
CCOC(=O)N1CCN(Cn2nc(C34CC5CC(CC(C5)C3)C4)n(/N=C/c3ccccc3O)c2=S)CC1 | < 10 mm | 19 mm | < 10 mm | 16 mm | < 10 mm | 18 mm | 4 µg/mL (≈ 7.62 µM) | 4 µg/mL (≈ 7.62 µM)
CCN1CCN(Cn2nc(C34CC5CC(CC(C5)C3)C4)n(-c3ccc(Cl)cc3)c2=S)CC1 | < 10 mm | 18 mm | < 10 mm | 15 mm | < 10 mm | 14 mm | 8 µg/mL (≈ 16.9 µM) | 
Fc1ccccc1NCn1nc(C23CC4CC(CC(C4)C2)C3)n(-c2ccc(Cl)cc2)c1=S | < 10 mm | 12 mm | < 10 mm | 12 mm | < 10 mm | 11 mm |  | 
CCOc1ccc(NCn2nc(C34CC5CC(CC(C5)C3)C4)n(-c3ccc(Cl)cc3)c2=S)cc1 | < 10 mm | < 10 mm | < 10 mm | < 10 mm | < 10 mm | < 10 mm |  | 
S=c1n(CN2CCN(c3ccccc3)CC2)nc(C23CC4CC(CC(C4)C2)C3)n1-c1ccc(Cl)cc1 | < 10 mm | 17 mm | < 10 mm | 14 mm | < 10 mm | 16 mm |  | 
Fc1cccc(F)c1NCn1nc(C23CC4CC(CC(C4)C2)C3)n(-c2ccc(Cl)cc2)c1=S | 11 mm | 20 mm | 14 mm | 17 mm | 13 mm | 18 mm | 8 µg/mL (≈ 16.4 µM) | 
Cn1c(C23CC4CC(CC(C4)C2)C3)nn(CNc2ccccc2)c1=S | < 10 mm | 12 mm | < 10 mm | < 10 mm | < 10 mm | < 10 mm |  | 
S=c1n(CNc2ccc(Br)cc2)nc(C23CC4CC(CC(C4)C2)C3)n1-c1ccc(Cl)cc1 | < 10 mm | < 10 mm | < 10 mm | < 10 mm | < 10 mm | < 10 mm |  | 
FC(F)(F)c1ccccc1NCn1nc(C23CC4CC(CC(C4)C2)C3)n(-c2ccc(Cl)cc2)c1=S | 11 mm | 19 mm | 12 mm | 14 mm | < 10 mm | 17 mm | 16 µg/mL (≈ 30.8 µM) | 
COc1ccccc1N1CCN(Cn2nc(C34CC5CC(CC(C5)C3)C4)n(-c3ccc(Cl)cc3)c2=S)CC1 | < 10 mm | 18 mm | < 10 mm | 16 mm | < 10 mm | 18 mm | 16 µg/mL (≈ 29.1 µM) | 16 µg/mL (≈ 29.1 µM)
S=c1n(CN2CCN(Cc3ccccc3)CC2)nc(C23CC4CC(CC(C4)C2)C3)n1-c1ccc(Cl)cc1 | < 10 mm | 12 mm | < 10 mm | 11 mm | < 10 mm | 11 mm |  | 
FC(F)(F)c1cccc(NCn2nc(C34CC5CC(CC(C5)C3)C4)n(-c3ccc(Cl)cc3)c2=S)c1 | < 10 mm | 16 mm | < 10 mm | 17 mm | < 10 mm | 16 mm |  | 
S=c1n(CNc2cc(Cl)cc(Cl)c2)nc(C23CC4CC(CC(C4)C2)C3)n1-c1ccc(Cl)cc1 | < 10 mm | 13 mm | < 10 mm | 11 mm | < 10 mm | 12 mm |  | 
CCOc1ccc(NCn2nc(C34CC5CC(CC(C5)C3)C4)n(C)c2=S)cc1 | < 10 mm | < 10 mm | < 10 mm | < 10 mm | < 10 mm | < 10 mm |  | 
S=c1n(CNc2ccccc2Cl)nc(C23CC4CC(CC(C4)C2)C3)n1-c1ccc(Cl)cc1 | < 10 mm | 11 mm | < 10 mm | < 10 mm | < 10 mm | 16 mm |  | 
Cn1c(C23CC4CC(CC(C4)C2)C3)nn(CNc2ccc(F)cc2)c1=S | < 10 mm | 12 mm | < 10 mm | < 10 mm | < 10 mm | 12 mm |  | 
Fc1ccc(NCn2nc(C34CC5CC(CC(C5)C3)C4)n(-c3ccc(Cl)cc3)c2=S)cc1 | < 10 mm | 16 mm | < 10 mm | 12 mm | < 10 mm | 14 mm |  | 
